pIC50: −log10 of the molar value.
The compounds below were run against T1, 1,25-dihydroxyvitamin D(3) 24-hydroxylase, mitochondrial (Homo sapiens, UniProt Q07973) (assay: Inhibition of CYP24A1).
T1 sequence (Q07973 whole entry): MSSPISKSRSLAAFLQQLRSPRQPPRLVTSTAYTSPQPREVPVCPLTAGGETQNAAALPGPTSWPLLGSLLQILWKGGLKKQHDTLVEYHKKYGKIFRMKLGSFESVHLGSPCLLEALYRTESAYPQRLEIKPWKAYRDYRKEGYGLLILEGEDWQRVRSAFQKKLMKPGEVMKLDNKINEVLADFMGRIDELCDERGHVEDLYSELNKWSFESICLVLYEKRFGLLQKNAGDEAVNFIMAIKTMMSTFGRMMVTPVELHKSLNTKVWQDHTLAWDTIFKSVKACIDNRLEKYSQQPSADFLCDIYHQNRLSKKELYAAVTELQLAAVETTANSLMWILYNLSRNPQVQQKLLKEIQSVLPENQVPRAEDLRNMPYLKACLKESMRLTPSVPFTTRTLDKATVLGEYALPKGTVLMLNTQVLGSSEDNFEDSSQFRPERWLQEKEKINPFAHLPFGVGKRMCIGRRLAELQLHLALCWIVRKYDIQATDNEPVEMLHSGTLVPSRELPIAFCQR
Assay type: ADME
A pIC50 of 7.82 was found for O=C(NC[C@@H](c1ccccc1)n1ccnc1)c1ccc(-c2ccc(Cl)cc2)cc1 in this work.

What follows are compounds tested against T1, 1,25-dihydroxyvitamin D(3) 24-hydroxylase, mitochondrial (assay: Inhibition of human recombinant CYP24A1 expressed in chinese hamster V79 cells using [3H-1-beta]calcitriol after 60 mins by scintillation counting).
Assay type: ADME, cell-based
A pIC50 of 4.97 was found for O=C(NCC(c1ccc(Cl)cc1)n1ccnc1)c1cc2ccccc2o1 (centres undefined) in this work. A pIC50 of 4.64 was found for O=C(NCC(c1ccccc1)n1ccnc1)c1ccc(Br)cc1 (centres undefined) in this work. A pIC50 of 4.14 was found for O=C(NCC(c1ccccc1)n1ccnc1)c1ccc(Cc2ccccc2)cc1 (centres undefined) in this work. A pIC50 of 5.40 was found for O=C(NCC(c1ccccc1)n1ccnc1)c1cc2ccccc2o1 (centres undefined) in this work. A pIC50 of 6.52 was found for O=C(NCC(c1ccccc1)n1ccnc1)c1ccc(/C=C/c2ccccc2)cc1 (centres undefined) in this work. A pIC50 of 4.43 was found for COc1ccc2cc(C(=O)NCC(c3ccccc3)n3ccnc3)oc2c1 (centres undefined) in this work. A pIC50 of 5.19 was found for O=C(NCC(c1ccccc1)n1ccnc1)c1cc2cc([N+](=O)[O-])ccc2o1 (centres undefined) in this work. A pIC50 of 5.55 was found for O=C(NCC(c1ccc(F)cc1)n1ccnc1)c1cc2ccccc2o1 (centres undefined) in this work.

— ChEMBL document CHEMBL1177687, “Synthesis and CYP24A1 inhibitory activity of N-(2-(1H-imidazol-1-yl)-2-phenylethyl)arylamides” (Bioorg Med Chem, 2010)
